Toxic doses and inconclusive results are not listed.

The subject of this experiment is BDF1 mice, P388 leukemia ip, median survival T/C. The experiment can be described thus: NCI In Vivo Anticancer Drug Screen. Data for tumor model P388 Leukemia (intraperitoneal) in B6D2F1 (BDF1) mice. As to conditions: endpoint: median survival time, higher = longer survival. On the procedure: The antitumor activity of compounds was measured in mice bearing transplantable tumors. Survival or tumor size were measured and the results are expressed as the measurement made in the treated group (T) divided by the measurement made in the vehicle treated control group (C). The tumor model used in this assay is P388 Leukemia (intraperitoneal) in B6D2F1 (BDF1) mice

Setting [1] is: dose: 200.0 mg/kg/injection, schedule: Q04DX003 (ip), vehicle: saline with Tween-80.
[2] abbreviates: dose: 400.0 mg/kg/injection, schedule: Q04DX003 (ip), vehicle: saline with Tween-80.
Where [3] appears, read: dose: 50.0 mg/kg/injection, schedule: Q01DX009 (ip), vehicle: saline with Tween-80.
Where [4] appears, read: dose: 100.0 mg/kg/injection, schedule: Q01DX009 (ip), vehicle: saline with Tween-80.
Where [5] appears, read: dose: 200.0 mg/kg/injection, schedule: Q01DX009 (ip), vehicle: saline with Tween-80.

Regarding `Nc1nc(SN=Nc2ccc(S(=O)(=O)O)cc2)c2[nH]cnc2n1`, the T/C is 113 % of control (dose: 4.0 mg/kg/injection, schedule: Q01DX009 (ip), vehicle: Klucel (hydroxypropylcellulose) (HPC)); 121 % of control (dose: 9.0 mg/kg/injection, schedule: Q01DX009 (ip), vehicle: Klucel (hydroxypropylcellulose) (HPC)); 108 % of control (dose: 20.0 mg/kg/injection, schedule: Q04DX003 (ip), vehicle: Klucel (hydroxypropylcellulose) (HPC)); 120 % of control (dose: 30.0 mg/kg/injection, schedule: Q04DX003 (ip), vehicle: Klucel (hydroxypropylcellulose) (HPC)); 112 % of control (dose: 45.0 mg/kg/injection, schedule: Q04DX003 (ip), vehicle: Klucel (hydroxypropylcellulose) (HPC)); 122 % of control (dose: 66.0 mg/kg/injection, schedule: Q04DX003 (ip), vehicle: saline). Further, the T/C is 118 % of control (dose: 100.0 mg/kg/injection, schedule: Q04DX003 (ip), vehicle: saline); 115 % of control (dose: 150.0 mg/kg/injection, schedule: Q04DX003 (ip), vehicle: Klucel (hydroxypropylcellulose) (HPC)); 113 % of control (dose: 150.0 mg/kg/injection, schedule: Q04DX003 (ip), vehicle: saline); 116 % of control (dose: 200.0 mg/kg/injection, schedule: Q04DX003 (ip), vehicle: Klucel (hydroxypropylcellulose) (HPC)).
As for `O=C(Nc1cc(C(F)(F)F)ccc1Cl)c1ccccc1Cl`, the T/C was 100 % of control (dose: 100.0 mg/kg/injection, schedule: Q04DX003 (ip), vehicle: saline with Tween-80); 104 % of control under setting [1]; 113 % of control under setting [2].
For the compound `O=c1[nH]cc(I)cc1I`, the T/C is, setting by setting: under setting [1], 100 % of control; under setting [2], 100 % of control.
In the case of `CC(=O)C(Cl)C(C)=O.CC(=O)C(Cl)C(C)=O.CO.CO.[Ni]`, the T/C (dose: 12.0 mg/kg/injection, schedule: Q01DX001 (ip), vehicle: Klucel (hydroxypropylcellulose) (HPC)) is 108 % of control; the T/C (dose: 25.0 mg/kg/injection, schedule: Q01DX001 (ip), vehicle: Klucel (hydroxypropylcellulose) (HPC)) was 95 % of control; the T/C (dose: 50.0 mg/kg/injection, schedule: Q01DX001 (ip), vehicle: Klucel (hydroxypropylcellulose) (HPC)) is 112 % of control; the T/C (dose: 100.0 mg/kg/injection, schedule: Q01DX001 (ip), vehicle: Klucel (hydroxypropylcellulose) (HPC)) was 104 % of control; the T/C (dose: 400.0 mg/kg/injection, schedule: Q01DX001 (ip), vehicle: Klucel (hydroxypropylcellulose) (HPC)) was 118 % of control.
Consider `COC(=O)C1=COC2OC3C(C(C)O)C(=O)OC34C=CC1C24` (stereo not given), for which the T/C was 90 % of control (dose: 0.04 mg/kg/injection, schedule: Q01DX009 (ip), vehicle: saline + alcohol); 95 % of control (dose: 0.2 mg/kg/injection, schedule: Q01DX009 (ip), vehicle: saline + alcohol); 118 % of control (dose: 1.0 mg/kg/injection, schedule: Q01DX009 (ip), vehicle: saline + alcohol); 118 % of control (dose: 5.0 mg/kg/injection, schedule: Q01DX009 (ip), vehicle: saline + alcohol).
Turning to `COC1(C)CCC(C=O)C(C#N)(C#N)C1(C#N)C#N` (stereo not given), the T/C is, setting by setting: (dose: 12.5 mg/kg/injection, schedule: Q01DX001 (ip), vehicle: saline with Tween-80) 98 % of control; (dose: 25.0 mg/kg/injection, schedule: Q01DX001 (ip), vehicle: saline with Tween-80) 100 % of control; (dose: 50.0 mg/kg/injection, schedule: Q01DX001 (ip), vehicle: saline with Tween-80) 104 % of control.
Turning to `O=[N+]([O-])c1ccc(S)cc1`, the T/C runs as follows: (dose: 18.75 mg/kg/injection, schedule: Q01DX009 (ip), vehicle: saline sonified) 100 % of control; (dose: 37.5 mg/kg/injection, schedule: Q01DX009 (ip), vehicle: saline sonified) 100 % of control; (dose: 75.0 mg/kg/injection, schedule: Q01DX009 (ip), vehicle: saline sonified) 117 % of control.
In the case of `CC1=C(Cl)C(Cl)(Cl)C(=O)C(=O)C1(Cl)Cl`, the T/C is, setting by setting: (dose: 6.25 mg/kg/injection, schedule: Q01DX009 (ip), vehicle: other) 100 % of control; (dose: 12.5 mg/kg/injection, schedule: Q01DX009 (ip), vehicle: other) 109 % of control; (dose: 25.0 mg/kg/injection, schedule: Q01DX009 (ip), vehicle: other) 113 % of control.
For the compound `O=C1CSC(C2CCCCC2)N1c1nccs1` (stereo not given), the T/C under setting [3] was 110 % of control, the T/C under setting [4] was 112 % of control and the T/C under setting [5] is 110 % of control.
As to `O=[N+]([O-])c1ccc(S(=O)(=O)Cc2ccccc2)c2nonc12`, for the setting “dose: 25.0 mg/kg/injection, schedule: Q01DX009 (ip), vehicle: saline with Tween-80”, the T/C is 112 % of control.
On to `COc1ccc(/C(=C\S(C)=O)c2cccs2)cc1` (stereo not given), for which the T/C by setting is: under setting [3], 105 % of control; under setting [4], 107 % of control; under setting [5], 100 % of control.
With `NCCCn1c2ccccc2c2cnccc21`, the T/C (dose: 5.0 mg/kg/injection, schedule: Q01DX009 (ip), vehicle: water) is 105 % of control; the T/C (dose: 10.0 mg/kg/injection, schedule: Q01DX009 (ip), vehicle: water) is 94 % of control; the T/C (dose: 20.0 mg/kg/injection, schedule: Q01DX009 (ip), vehicle: water) is 119 % of control; the T/C (dose: 25.0 mg/kg/injection, schedule: Q01DX009 (ip), vehicle: water) is 91 % of control; the T/C (dose: 25.0 mg/kg/injection, schedule: Q04DX003 (ip), vehicle: water) was 103 % of control; the T/C (dose: 40.0 mg/kg/injection, schedule: Q01DX009 (ip), vehicle: water) is 119 % of control. For the same compound, the T/C reads like this: (dose: 50.0 mg/kg/injection, schedule: Q04DX003 (ip), vehicle: water) 107 % of control; (dose: 100.0 mg/kg/injection, schedule: Q04DX003 (ip), vehicle: water) 99 % of control.
Consider `CCOC(=O)c1cc(C=O)c[nH]1`, for which the T/C runs as follows: under setting [3], 93 % of control; under setting [4], 99 % of control; under setting [5], 101 % of control.
In the case of `COc1cc([C@@H]2c3cc4c(cc3C[C@H]3COC(=O)[C@@H]32)OCO4)cc(OC)c1OC`, the T/C runs as follows: (dose: 1.25 mg/kg/injection, schedule: Q01DX010 (ip), vehicle: saline) 109 % of control; (dose: 2.5 mg/kg/injection, schedule: Q01DX001 (ip), vehicle: other) 105 % of control; (dose: 2.5 mg/kg/injection, schedule: Q01DX010 (ip), vehicle: saline) 118 % of control; (dose: 5.0 mg/kg/injection, schedule: Q01DX001 (ip), vehicle: other) 115 % of control; (dose: 10.0 mg/kg/injection, schedule: Q01DX010 (ip), vehicle: other) 154 % of control; (dose: 20.0 mg/kg/injection, schedule: Q01DX010 (ip), vehicle: other) 95 % of control.
For the compound `CCOC(=O)C1=C(O)Cc2c(nc3ccc(C)cn3c2=O)C1`, the T/C runs as follows: under setting [3], 100 % of control; under setting [4], 96 % of control; under setting [5], 98 % of control.
The corresponding values for `CC(C)(C)NCC(O)c1cc(C(F)(F)F)nc2c(C(F)(F)F)cccc12` (stereo not given) are 100 % of control, 100 % of control and 97 % of control.
With `CCC1(Br)OC1=O` (stereo not given), the T/C (dose: 150.0 mg/kg/injection, schedule: Q01DX009 (ip), vehicle: saline) is 115 % of control and the T/C (dose: 335.0 mg/kg/injection, schedule: Q01DX009 (ip), vehicle: saline) was 115 % of control.
As to `CCB1OCC2OB(CC)OC2C2OB(CC)OC2CO1` (stereo not given), the T/C runs as follows: (dose: 50.0 mg/kg/injection, schedule: Q01DX009 (ip), vehicle: saline) 100 % of control; (dose: 100.0 mg/kg/injection, schedule: Q01DX009 (ip), vehicle: saline) 97 % of control; (dose: 200.0 mg/kg/injection, schedule: Q01DX009 (ip), vehicle: saline) 93 % of control.
As to `CC(=O)Nc1ccc(C(=O)NN)cc1`, the T/C was 108 % of control under setting [4]; 105 % of control under setting [5]; 97 % of control (dose: 400.0 mg/kg/injection, schedule: Q01DX009 (ip), vehicle: saline with Tween-80).
As to `CCS/C(N)=N\N`, the T/C is, setting by setting: (dose: 12.5 mg/kg/injection, schedule: Q01DX009 (ip), vehicle: saline) 100 % of control; (dose: 25.0 mg/kg/injection, schedule: Q01DX009 (ip), vehicle: saline) 104 % of control; (dose: 25.0 mg/kg/injection, schedule: Q04DX003 (ip), vehicle: saline) 109 % of control; (dose: 50.0 mg/kg/injection, schedule: Q04DX003 (ip), vehicle: saline) 104 % of control.

The record behind these values is PubChem BioAssay AID328 (DTP/NCI, 2004).
